Data reported in patent publication US20230036339A1, “BIOACTIVE IMPLANTS FOR DRUG DELIVERY” (The Queen's University of Belfast, priority 2019, published 2023).
“And” between values parts separate entries of the source, which are not always exact repeats. Identical values can stand only once. Marks after values point to notes of the source that are not given here.

How the values were obtained:
[1] = cited from earlier work
[2] = Thermogravimetric analysis (TGA), thermal stability; assay type: physicochemical; settings: 10° C. min-1, reported at 5% weight loss
Description: TGA was utilised to determine thermal stability. Initially the starting materials (LIDO, MA, SA and GMS) were analysed to deduce the degradation temperature. The excipients were exposed to a heating ramp from room temperature (circa 20° C.) to 500° C., at 10° C. min-1.
LIDO and the relevant lipids were weighed and heated at 80° C. until molten. The samples were given 24 hours to cool/solidify before they were ground using a mortar and pestle for 2 min. The resultant systems were heated at 10° C. min-1 from room temperature to 350° C. All TGA experiments were conducted in triplicates, using Perkin-Elmer Aluminum Non-Hermetic DSC pans. Nitrogen (60 mL min-1) was used as the purge gas. The degradation temperature was reported at 5% weight loss. Analysis was performed using TA Universal analysis software.
Consequently, TGA is an essential technique used to inform the suitability of these materials and processing conditions of HME. The thermal degradation temperature was reported at 5% weight loss.

[3] = Assessment of drug loading capacity of EVA
[4] = Lidocaine and myristic acid remaining post-implantation; assay type: in vivo; settings: individual sheep
Description: The components of the outer coating were dissolved by sonication in dicholoromethane and the volume was then made up to 50 ml. Two ml of this solution was dried for 1 h at 50° C. and reconstituted in 100 ml methanol. The methanolic solutions were appropriately diluted in the mobile phase for assay by LCMS-MS.

[5] = In vivo sheep study, pharmacokinetics of lidocaine and myristic acid; settings: FIG. 25

## CCCCCCCCCCCCCCCCCC(=O)O [Stearic Acid]
[1]
  LogP: 7.15
[2]; listed as SA
  Mean Degradation Temperature ± SD: 201.75 °C and 201.75 ± 4.12 °C

## CCN(CC)CC(=O)Nc1c(C)cccc1C [Lidocaine, 2-(diethyl-amino)-N-(2,6-dimethylpheny)-acetamide, reference compound]
[3]; in EVA 33%
  Lidocaine concentration at which it crystalises out: > 10%
[3]; solvent cast EVA film or EVA polymer implant
  Lidocaine concentration over which it crystallises out: 9-10 % w/w
[2]; listed as LIDO
  Mean Degradation Temperature ± SD: 164.40 ± 1.30 °C
[2]; listed as lidocaine
  Mean Degradation Temperature ± SD: 164.40 °C

## CCCCCCCCCCCCCC(=O)O [Myristic Acid]
[1]
  LogP: 5.37
[4]; in co-extrudate after 3 days implantation, mean ± SD n=3
  Myristic acid % Remaining: 10.04 ± 1.82% and 16.91 ± 6.77% and 11.21 ± 0.98%
[4]; in co-extrudate after 7 days implantation, listed as Myristic acid
  Myristic acid % Remaining: <4.00* %
[4]; in co-extrudate after 7 days implantation, listed as myristic acid
  Myristic acid % Remaining: too low to quantify
[2]; listed as MA
  Mean Degradation Temperature ± SD: 177.55 °C and 177.55 ± 0.82 °C
[5]
  Concentration in peritoneal fluid compared to plasma: higher concentrations again observed in peritoneal fluid

## CCCCCCCCCCCCCCCCCC(=O)OCC(O)CO (centres unmarked) [Glycerol Monostearate]
[1]
  LogP: 5.97
[2]; listed as GMS
  Mean Degradation Temperature ± SD: 197.34 °C and 197.34 ± 8.23 °C
